{"source": "patent US6849598B1", "about": "“Therapeutic compositions comprising bactericidal/permeability-increasing (BPI) protein products” (XOMA, priority 1995, dated 2005)", "key": {"E. faecium": {"tested_on": "E. faecium", "assay": "Antibiotic susceptibility (MIC, Sensititre Trays) with rBPI21 poloxamer formulations; for susceptibility interpretation of MIC (superscript): key: clinically resistant (R); intermediate (I); susceptible (S)", "type": "cell-based", "details": "for MIC: Enterococcus faecium, read-out: Minimum Inhibitory Concentration"}, "A. baumannii": {"tested_on": "A. baumannii", "assay": "Bactericidal activity in serum, broth or water, CFU after 4 hours (Example 2)", "type": "cell-based", "protocol": "The bactericidal activity of therapeutic compositions comprising BPI protein product and either poloxamer 333 (PLURONIC P103, BASF Wyandotte Corp.) or heat-treated PLURONIC P103, was evaluated against the clinical isolates of Example 1. Therapeutic compositions comprising 160 μg/mL rBPI21 and varying concentrations of either PLURONIC P103 or heat-treated PLURONIC P103 were formulated by diluting a 2 mg/mL solution of “non-formulated” rBPI21 (in buffer comprising 5 mM sodium citrate and 150 mM NaCl, without any surfactants) with the appropriate amounts of PLURONIC P103 or heat-treated PLURONIC P103 solutions. A “formulated” rBPI21 solution containing 2 mg/mL rBPI21, 0.2% poloxamer 188 (PLURONIC F68, BASF Wyandotte Corp.), 0.002% TWEEN 80 (polysorbate 80, ICI Americas, Wilmington, Del.), 5 mM sodium citrate and 150 mM NaCl was also tested for comparison. Poloxamer control solutions containing only 0.1% PLURONIC P103 or 0.1% heat-treated PLURONIC P103, and no rBPI21, were also prepared.\nA 0.1% (w/v) solution of PLURONIC P103 was prepared by stirring the PLURONIC P103 in deionized water until dissolved and filtering the solution through a […] cellulose acetate polystyrene filter unit (Corning Inc., Corning, N.Y.). […]\nThe bacteria to be used in the assays were grown on tryptic soy agar (TSA) plates (Remel, Catalog #01-920, Lenexa, Kans.) for 24 hours. […] A bacterial stock emulsion was prepared by emulsifying bacterial colonies in sterile deionized water to approximately 2.2 to 3.8×10^8 colony forming units (CFU)/mL as measured by a Microscan® Turbidity Meter (Dade Microscan, West Sacramento, Calif.), and diluting further by 1:10 in water. […] Following incubation, the remaining colony forming units (CFU) in each well were counted at a 10^−2 dilution by plating 10 μL from each well onto TSA plates. The TSA plates were incubated at 37° C. for 24 hours and the number of bacterial colonies were visually counted. […]"}, "[1]": {"details": "CSMHB, 16 μg/mL rBPI21 with F68"}, "[2]": {"details": "CSMHB, 16 μg/mL rBPI21 with P103"}, "[3]": {"details": "CSMHB, 16 μg/mL rBPI21 with P104"}, "[4]": {"details": "CSMHB, 16 μg/mL rBPI21 with P105"}, "[5]": {"details": "CSMHB, 16 μg/mL rBPI21 with P123"}, "[6]": {"details": "Serum, 16 μg/mL rBPI21 with F68"}, "[7]": {"details": "Serum, 16 μg/mL rBPI21 with P103"}, "[8]": {"details": "Serum, 16 μg/mL rBPI21 with P104"}, "[9]": {"details": "Serum, 16 μg/mL rBPI21 with P105"}, "[10]": {"details": "Serum, 16 μg/mL rBPI21 with P123"}}, "note": "Where two headings read alike, the source gives them in different places."}
{"molecule": "O=C(N[C@H](CO)[C@H](O)c1ccc([N+](=O)[O-])cc1)C(Cl)Cl", "note": "[Chloramphenicol]", "values": [{"measurement": "susceptibility interpretation of MIC (superscript)", "setting": "E. faecium; [1]", "result": "S"}, {"measurement": "susceptibility interpretation of MIC (superscript)", "setting": "E. faecium; [2]", "result": "S"}, {"measurement": "susceptibility interpretation of MIC (superscript)", "setting": "E. faecium; [3]", "result": "S"}, {"measurement": "susceptibility interpretation of MIC (superscript)", "setting": "E. faecium; [4]", "result": "S"}, {"measurement": "susceptibility interpretation of MIC (superscript)", "setting": "E. faecium; [5]", "result": "S"}, {"measurement": "susceptibility interpretation of MIC (superscript)", "setting": "E. faecium; CSMHB, Control (no BPI)", "result": "I"}, {"measurement": "MIC", "setting": "E. faecium; [1]", "result": "< 4", "unit": "µg/mL"}, {"measurement": "MIC", "setting": "E. faecium; [2]", "result": "< 4", "unit": "µg/mL"}, {"measurement": "MIC", "setting": "E. faecium; [3]", "result": "< 4", "unit": "µg/mL"}, {"measurement": "MIC", "setting": "E. faecium; [4]", "result": "< 4", "unit": "µg/mL"}, {"measurement": "MIC", "setting": "E. faecium; [5]", "result": "< 4", "unit": "µg/mL"}, {"measurement": "MIC", "setting": "E. faecium; CSMHB, Control (no BPI)", "result": 16, "unit": "µg/mL"}, {"measurement": "MIC", "setting": "E. faecium; [6]", "result": 8, "unit": "µg/mL"}, {"measurement": "MIC", "setting": "E. faecium; [7]", "result": 8, "unit": "µg/mL"}, {"measurement": "MIC", "setting": "E. faecium; [8]", "result": 8, "unit": "µg/mL"}, {"measurement": "MIC", "setting": "E. faecium; [9]", "result": 8, "unit": "µg/mL"}, {"measurement": "MIC", "setting": "E. faecium; [10]", "result": 8, "unit": "µg/mL"}, {"measurement": "MIC", "setting": "E. faecium; Serum, Control (no BPI)", "result": 8, "unit": "µg/mL"}, {"measurement": "susceptibility interpretation of MIC (superscript)", "setting": "E. faecium; [6]", "result": "S"}, {"measurement": "susceptibility interpretation of MIC (superscript)", "setting": "E. faecium; [7]", "result": "S"}, {"measurement": "susceptibility interpretation of MIC (superscript)", "setting": "E. faecium; [8]", "result": "S"}, {"measurement": "susceptibility interpretation of MIC (superscript)", "setting": "E. faecium; [9]", "result": "S"}, {"measurement": "susceptibility interpretation of MIC (superscript)", "setting": "E. faecium; [10]", "result": "S"}, {"measurement": "susceptibility interpretation of MIC (superscript)", "setting": "E. faecium; Serum, Control (no BPI)", "result": "S"}]}
{"molecule": "rBPI21: expression product of DNA encoding amino acid 1 to approximately 193 or 199 of BPI holoprotein, cysteine 132 substituted with alanine (protein, UniProt P17213 32-224, looked up, variant C132A) VNPGVVVRISQKGLDYASQQGTAALQKELKRIKIPDYSDSFKIKHLGKGHYSFYSMDIREFQLPSSQISMVPNVGLKFSISNANIKISGKWKAQKRFLKMSGNFDLSIEGMSISADLKLGSNPTSGKPTITASSCSSHINSVHVHISKSKVGWLIQLFHKKIESALRNKMNSQVCEKVTNSVSSELQPYFQTL", "values": [{"measurement": "colony forming units after 4 hours", "setting": "A. baumannii; Broth, bacteria only >5000", "result": ">5000 100's of CFUs"}, {"measurement": "colony forming units after 4 hours", "setting": "A. baumannii; Serum, bacteria only >2000", "result": ">2000 100's of CFUs"}, {"measurement": "colony forming units after 4 hours", "setting": "A. baumannii; Water, bacteria only >2000", "result": "519 100's of CFUs"}]}
